From ChEMBL document CHEMBL5465560, “Selectivity Literature for EUbOPEN Chemogenomic Library” (2024) come the findings set out here.

The target in experiment [1] is Platelet-derived growth factor receptor alpha (Homo sapiens, UniProt P16234). The settings on record: at 10 µM.
In experiment [2] the target is Tyrosine-protein kinase FRK (Homo sapiens) (UniProt P42685). The following applies: at 10 µM.
Experiment [3] has as its target Mitogen-activated protein kinase 14 (Homo sapiens, UniProt Q16539). Kind of experiment: Selectivity interaction (KinomeScan (DiscoverX)) EUB0000092b MAPK14. The settings on record: at 10 µM.
Experiment [4] concerns the target Epithelial discoidin domain-containing receptor 1 (Homo sapiens) (UniProt Q08345). Briefly: Selectivity interaction (KinomeScan (DiscoverX)) EUB0000092b DDR1. The following applies: at 10 µM.
The target in experiment [5] is Mitogen-activated protein kinase 3 (Homo sapiens, UniProt P27361). Briefly: Selectivity interaction (KinomeScan (DiscoverX)) EUB0001049a MAPK3. The following applies: at 1 µM.
Experiment [6] addresses T1, Tyrosine-protein kinase Mer (Homo sapiens) (UniProt Q12866).
T1 sequence (whole entry): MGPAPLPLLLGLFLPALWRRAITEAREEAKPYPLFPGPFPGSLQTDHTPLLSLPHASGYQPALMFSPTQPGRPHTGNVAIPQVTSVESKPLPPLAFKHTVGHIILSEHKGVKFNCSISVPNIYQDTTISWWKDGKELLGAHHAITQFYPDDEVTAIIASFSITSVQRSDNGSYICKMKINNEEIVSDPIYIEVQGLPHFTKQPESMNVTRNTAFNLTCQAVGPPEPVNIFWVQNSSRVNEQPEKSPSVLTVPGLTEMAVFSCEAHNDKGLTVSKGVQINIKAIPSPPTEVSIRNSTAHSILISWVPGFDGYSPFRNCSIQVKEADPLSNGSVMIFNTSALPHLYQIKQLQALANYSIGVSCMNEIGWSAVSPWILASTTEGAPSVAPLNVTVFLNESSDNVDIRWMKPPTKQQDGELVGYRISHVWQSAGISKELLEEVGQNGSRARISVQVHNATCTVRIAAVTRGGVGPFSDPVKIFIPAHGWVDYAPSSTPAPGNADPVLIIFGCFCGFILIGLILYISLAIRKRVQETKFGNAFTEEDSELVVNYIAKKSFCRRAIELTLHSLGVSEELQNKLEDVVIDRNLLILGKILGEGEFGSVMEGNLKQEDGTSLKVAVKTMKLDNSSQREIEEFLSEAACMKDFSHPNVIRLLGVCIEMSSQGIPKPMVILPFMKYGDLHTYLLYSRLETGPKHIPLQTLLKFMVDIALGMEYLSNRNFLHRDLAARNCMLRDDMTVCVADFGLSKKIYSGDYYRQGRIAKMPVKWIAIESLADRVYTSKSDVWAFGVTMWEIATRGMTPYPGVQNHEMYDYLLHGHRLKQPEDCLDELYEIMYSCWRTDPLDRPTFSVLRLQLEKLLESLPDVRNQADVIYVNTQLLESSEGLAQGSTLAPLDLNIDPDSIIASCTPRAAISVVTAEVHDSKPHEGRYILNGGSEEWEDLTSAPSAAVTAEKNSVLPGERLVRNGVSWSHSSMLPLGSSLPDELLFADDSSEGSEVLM
Briefly: Selectivity interaction (KinomeScan (DiscoverX)) EUB0000655a MERTK. The settings on record: at 10 µM.

Experiment [7] addresses Mitogen-activated protein kinase kinase kinase kinase 4 (Homo sapiens, UniProt O95819). Kind of experiment: Selectivity interaction (KinomeScan (DiscoverX)) EUB0000655a MAP4K4. The settings on record: at 10 µM.
In experiment [8] the target is Histone-lysine N-methyltransferase, H3 lysine-36 specific (Homo sapiens) (UniProt Q96L73). Briefly: Selectivity interaction (PWWP, WD40, and Tudor domain panel (DSLS measurements, literature)) EUB0000270b NSD1.
Experiment [9] concerns the target Tyrosine-protein kinase Srms (Homo sapiens) (UniProt Q9H3Y6). Kind of experiment: Selectivity interaction (KinomeScan (DiscoverX)) EUB0000607a SRMS. The settings on record: at 10 µM.
For experiment [10], the target named is RAC-alpha serine/threonine-protein kinase (Homo sapiens, UniProt P31749).
The target in experiment [11] is Serine/threonine-protein kinase 32B (Homo sapiens) (UniProt Q9NY57). Briefly: Selectivity interaction (KinomeScan (DiscoverX)) EUB0000229b STK32B. The following applies: at 10 µM.
Experiment [12] concerns the target Mitogen-activated protein kinase 1 (Homo sapiens, UniProt P28482). Briefly: Selectivity interaction (Kinase panel (DSF assay)) EUB0001559a MAPK1.
Experiment [13] has as its target T2, Dual specificity mitogen-activated protein kinase kinase 7 (Homo sapiens) (UniProt O14733).
T2 sequence (whole entry): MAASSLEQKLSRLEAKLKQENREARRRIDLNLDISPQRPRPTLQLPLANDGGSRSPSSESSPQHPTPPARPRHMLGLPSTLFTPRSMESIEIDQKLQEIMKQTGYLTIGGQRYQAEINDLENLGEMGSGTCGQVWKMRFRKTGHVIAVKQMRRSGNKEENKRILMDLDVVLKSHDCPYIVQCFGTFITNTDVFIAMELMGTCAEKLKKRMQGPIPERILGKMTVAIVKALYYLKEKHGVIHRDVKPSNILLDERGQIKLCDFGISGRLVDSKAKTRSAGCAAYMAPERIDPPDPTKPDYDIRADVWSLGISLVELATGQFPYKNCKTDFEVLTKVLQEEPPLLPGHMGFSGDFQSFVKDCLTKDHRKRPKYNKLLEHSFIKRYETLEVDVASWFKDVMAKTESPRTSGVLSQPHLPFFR
Briefly: Selectivity interaction (KinomeScan (DiscoverX)) EUB0001619a MAP2K7. The following applies: at 1 µM.

Mitogen-activated protein kinase 14, sequence (Q16539 whole entry, the tested form may be a part): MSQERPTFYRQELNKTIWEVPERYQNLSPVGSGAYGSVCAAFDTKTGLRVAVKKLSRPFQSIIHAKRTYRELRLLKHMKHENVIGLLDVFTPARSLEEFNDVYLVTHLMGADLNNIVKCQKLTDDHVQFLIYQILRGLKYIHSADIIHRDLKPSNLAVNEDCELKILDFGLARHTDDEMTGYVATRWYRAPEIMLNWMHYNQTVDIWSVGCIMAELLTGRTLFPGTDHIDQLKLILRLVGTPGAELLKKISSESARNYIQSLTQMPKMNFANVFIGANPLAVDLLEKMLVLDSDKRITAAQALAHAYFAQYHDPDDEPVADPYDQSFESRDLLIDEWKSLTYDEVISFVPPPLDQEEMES
Platelet-derived growth factor receptor alpha, sequence (P16234 whole entry): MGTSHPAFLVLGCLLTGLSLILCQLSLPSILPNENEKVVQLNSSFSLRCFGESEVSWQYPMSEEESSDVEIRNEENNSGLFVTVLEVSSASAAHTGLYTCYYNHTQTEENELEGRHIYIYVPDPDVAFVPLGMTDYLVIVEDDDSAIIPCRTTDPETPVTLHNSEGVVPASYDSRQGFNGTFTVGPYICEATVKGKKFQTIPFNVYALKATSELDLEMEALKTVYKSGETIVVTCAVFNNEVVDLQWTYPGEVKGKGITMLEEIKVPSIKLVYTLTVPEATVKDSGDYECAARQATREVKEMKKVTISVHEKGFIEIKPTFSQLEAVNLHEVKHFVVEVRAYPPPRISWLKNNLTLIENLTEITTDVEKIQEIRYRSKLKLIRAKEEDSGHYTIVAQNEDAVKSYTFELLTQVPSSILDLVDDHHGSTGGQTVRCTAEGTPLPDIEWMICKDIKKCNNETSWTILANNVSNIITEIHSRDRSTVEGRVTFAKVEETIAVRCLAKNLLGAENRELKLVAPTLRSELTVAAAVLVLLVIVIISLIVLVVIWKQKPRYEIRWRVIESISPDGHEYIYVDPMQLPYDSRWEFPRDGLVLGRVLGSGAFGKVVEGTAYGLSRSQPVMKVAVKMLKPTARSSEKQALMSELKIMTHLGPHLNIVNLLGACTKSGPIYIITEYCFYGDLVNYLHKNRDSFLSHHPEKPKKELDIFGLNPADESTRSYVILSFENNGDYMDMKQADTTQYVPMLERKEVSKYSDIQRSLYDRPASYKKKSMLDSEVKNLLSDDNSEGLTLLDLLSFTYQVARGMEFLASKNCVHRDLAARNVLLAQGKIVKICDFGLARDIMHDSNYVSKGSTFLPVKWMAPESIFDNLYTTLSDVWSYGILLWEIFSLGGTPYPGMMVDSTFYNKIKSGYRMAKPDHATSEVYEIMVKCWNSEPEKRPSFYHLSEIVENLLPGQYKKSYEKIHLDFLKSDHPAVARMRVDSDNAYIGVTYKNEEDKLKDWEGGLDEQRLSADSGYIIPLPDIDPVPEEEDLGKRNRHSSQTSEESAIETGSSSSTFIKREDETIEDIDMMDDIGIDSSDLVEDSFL
Tyrosine-protein kinase Srms (Homo sapiens), sequence (Q9H3Y6 whole entry): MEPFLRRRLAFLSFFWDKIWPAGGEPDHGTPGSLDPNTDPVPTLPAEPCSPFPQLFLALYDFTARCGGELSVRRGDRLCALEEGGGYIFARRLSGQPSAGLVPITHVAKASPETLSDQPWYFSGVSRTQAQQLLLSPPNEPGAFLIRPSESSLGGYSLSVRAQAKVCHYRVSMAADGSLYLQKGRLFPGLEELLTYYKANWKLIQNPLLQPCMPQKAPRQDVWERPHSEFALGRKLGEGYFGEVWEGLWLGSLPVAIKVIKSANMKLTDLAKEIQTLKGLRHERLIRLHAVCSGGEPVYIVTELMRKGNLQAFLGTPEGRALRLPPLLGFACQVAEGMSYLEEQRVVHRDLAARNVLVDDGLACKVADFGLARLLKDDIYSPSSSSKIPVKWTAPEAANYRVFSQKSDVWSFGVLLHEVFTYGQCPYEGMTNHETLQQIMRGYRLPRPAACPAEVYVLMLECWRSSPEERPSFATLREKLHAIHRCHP
Serine/threonine-protein kinase 32B (Homo sapiens), sequence (Q9NY57 whole entry): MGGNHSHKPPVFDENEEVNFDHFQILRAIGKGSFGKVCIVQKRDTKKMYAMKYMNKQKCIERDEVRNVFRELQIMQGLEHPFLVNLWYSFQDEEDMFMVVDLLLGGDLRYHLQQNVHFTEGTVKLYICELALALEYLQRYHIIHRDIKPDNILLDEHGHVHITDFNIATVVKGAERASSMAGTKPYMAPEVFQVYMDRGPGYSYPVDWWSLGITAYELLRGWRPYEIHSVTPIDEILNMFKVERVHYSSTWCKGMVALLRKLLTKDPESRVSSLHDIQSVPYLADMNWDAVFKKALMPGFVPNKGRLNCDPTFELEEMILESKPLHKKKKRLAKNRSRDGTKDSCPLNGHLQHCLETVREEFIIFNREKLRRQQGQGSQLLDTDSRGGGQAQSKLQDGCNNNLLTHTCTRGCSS
Epithelial discoidin domain-containing receptor 1 (Homo sapiens), sequence (Q08345 whole entry, the tested form may be a part): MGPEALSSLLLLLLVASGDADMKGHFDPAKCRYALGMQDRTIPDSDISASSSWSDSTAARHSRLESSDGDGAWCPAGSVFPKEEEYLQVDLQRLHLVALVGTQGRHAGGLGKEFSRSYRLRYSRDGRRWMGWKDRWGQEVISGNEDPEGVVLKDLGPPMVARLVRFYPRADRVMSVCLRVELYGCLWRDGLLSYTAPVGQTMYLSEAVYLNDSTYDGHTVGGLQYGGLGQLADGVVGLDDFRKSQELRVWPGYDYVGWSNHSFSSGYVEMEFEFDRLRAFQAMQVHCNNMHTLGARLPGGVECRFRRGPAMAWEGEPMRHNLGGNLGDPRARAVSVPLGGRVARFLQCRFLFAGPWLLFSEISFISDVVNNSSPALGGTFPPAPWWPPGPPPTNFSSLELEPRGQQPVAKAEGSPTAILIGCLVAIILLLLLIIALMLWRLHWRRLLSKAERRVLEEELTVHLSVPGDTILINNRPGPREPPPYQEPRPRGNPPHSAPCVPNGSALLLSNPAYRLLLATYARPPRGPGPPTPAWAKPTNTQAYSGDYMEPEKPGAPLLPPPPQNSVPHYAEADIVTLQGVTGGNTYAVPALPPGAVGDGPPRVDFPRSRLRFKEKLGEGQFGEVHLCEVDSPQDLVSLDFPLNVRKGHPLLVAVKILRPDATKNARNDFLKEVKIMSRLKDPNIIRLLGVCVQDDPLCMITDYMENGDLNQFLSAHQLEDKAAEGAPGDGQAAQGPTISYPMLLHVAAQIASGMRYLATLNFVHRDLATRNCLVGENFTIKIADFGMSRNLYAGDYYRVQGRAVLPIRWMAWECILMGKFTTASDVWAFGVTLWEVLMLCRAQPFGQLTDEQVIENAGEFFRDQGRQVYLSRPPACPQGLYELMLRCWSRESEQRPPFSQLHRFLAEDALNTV
Mitogen-activated protein kinase 3, sequence (P27361 whole entry): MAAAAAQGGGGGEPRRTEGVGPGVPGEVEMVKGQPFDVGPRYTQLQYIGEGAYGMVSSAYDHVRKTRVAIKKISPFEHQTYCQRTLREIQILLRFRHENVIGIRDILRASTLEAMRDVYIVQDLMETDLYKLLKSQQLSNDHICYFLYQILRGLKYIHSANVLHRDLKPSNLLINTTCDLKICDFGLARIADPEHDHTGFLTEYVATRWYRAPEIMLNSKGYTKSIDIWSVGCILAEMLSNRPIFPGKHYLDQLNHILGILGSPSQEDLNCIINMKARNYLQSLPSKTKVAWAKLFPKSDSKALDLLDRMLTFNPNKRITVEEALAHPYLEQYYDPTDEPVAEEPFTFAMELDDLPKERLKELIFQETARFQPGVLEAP
Mitogen-activated protein kinase kinase kinase kinase 4, sequence (O95819 2-1239 limits assumed): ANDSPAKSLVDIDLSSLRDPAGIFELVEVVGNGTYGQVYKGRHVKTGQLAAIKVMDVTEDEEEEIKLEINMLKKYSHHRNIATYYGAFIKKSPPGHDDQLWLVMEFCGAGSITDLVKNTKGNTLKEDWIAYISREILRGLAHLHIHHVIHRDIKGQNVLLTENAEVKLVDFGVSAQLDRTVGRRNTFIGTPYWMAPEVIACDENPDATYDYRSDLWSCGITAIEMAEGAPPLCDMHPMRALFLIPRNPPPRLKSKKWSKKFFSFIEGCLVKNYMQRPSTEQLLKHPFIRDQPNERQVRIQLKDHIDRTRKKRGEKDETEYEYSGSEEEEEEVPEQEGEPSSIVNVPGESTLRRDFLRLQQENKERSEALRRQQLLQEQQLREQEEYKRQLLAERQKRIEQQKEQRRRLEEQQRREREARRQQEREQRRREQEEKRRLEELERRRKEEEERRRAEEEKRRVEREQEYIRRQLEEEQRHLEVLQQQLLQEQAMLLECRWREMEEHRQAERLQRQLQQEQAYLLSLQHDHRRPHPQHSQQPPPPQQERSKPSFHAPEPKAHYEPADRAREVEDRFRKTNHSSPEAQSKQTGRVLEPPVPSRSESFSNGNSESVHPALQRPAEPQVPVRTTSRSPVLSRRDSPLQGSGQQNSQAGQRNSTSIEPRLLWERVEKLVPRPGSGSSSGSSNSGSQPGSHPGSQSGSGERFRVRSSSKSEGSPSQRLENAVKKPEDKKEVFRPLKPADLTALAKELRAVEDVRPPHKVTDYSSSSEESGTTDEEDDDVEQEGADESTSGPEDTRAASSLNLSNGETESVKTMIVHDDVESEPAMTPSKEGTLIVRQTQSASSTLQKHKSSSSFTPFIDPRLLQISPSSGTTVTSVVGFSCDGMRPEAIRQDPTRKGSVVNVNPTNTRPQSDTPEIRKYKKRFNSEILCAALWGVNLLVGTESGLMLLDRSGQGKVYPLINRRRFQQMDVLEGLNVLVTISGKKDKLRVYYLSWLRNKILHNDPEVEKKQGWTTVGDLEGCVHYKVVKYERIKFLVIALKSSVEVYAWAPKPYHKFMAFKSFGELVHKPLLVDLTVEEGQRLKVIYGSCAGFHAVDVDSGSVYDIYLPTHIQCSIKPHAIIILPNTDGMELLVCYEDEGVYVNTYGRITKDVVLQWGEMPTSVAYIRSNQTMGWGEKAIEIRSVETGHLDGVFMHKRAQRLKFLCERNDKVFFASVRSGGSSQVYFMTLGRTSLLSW

`CCN(CC)CCCCNc1ncc2cc(-c3cc(OC)cc(OC)c3)c(NC(=O)NC(C)(C)C)nc2n1`: the % of control in [1] and in experiment [2] was 100% each time.

As for `CCC(=O)N1CCN(c2ccc(-n3c(=O)ccc4cnc5ccc(-c6cnc7ccccc7c6)cc5c43)cc2C(F)(F)F)CC1`, the results for the % of control in [3] and in experiment [4] were 90% and 100%, respectively.

Molecule `COc1cc(Nc2nc(C)cc(-c3cnn4nc(OC)ccc34)n2)cc(C(F)(F)F)c1` had a % of control in [5] of 98%. Take `CN(C)CCOc1ccc(-c2nc(-c3ccncc3)c(-c3ccc4c(c3)CC/C4=N\O)[nH]2)cc1`: the % of control in [6] was found to be 87%; in experiment [7] it was 27%. Molecule `Cc1cc(CN)cc(C)c1-c1ncn(C)c1-c1cncn1C` had a dTagg in [8] of 0.1 K. On to `CNC(=O)Nc1ccc(-c2nc(N3CC4CCC(C3)O4)c3cnn(C4CCC5(CC4)OCCO5)c3n2)cc1`, for which the % of control in experiment [9] came out at 97%. A word on the IC50: it is the concentration that inhibits the measured activity by half. In turn, `CCc1cccc(CC)c1NC(=O)c1nn(C)c2c1CCc1cnc(Nc3ccc(C(=O)NC4CCN(C)CC4)cc3OC(F)(F)F)nc1-2` showed an IC50 in experiment [10] above 10 µM. The molecule `COc1cc(N(C)c2ccnc3ccc(C(F)(F)F)cc23)cc(OC)c1OC` yielded a % binding in [11] of 100%. As to `CN(C(=O)c1cnn2cccnc12)c1cc2c(cc1N1CCOCC1)C(=O)N(C[C@@H](F)C(C)(C)O)C2`, the dTM in experiment [12] is -1 K. In experiment [13], `N#Cc1cccc(-c2c[nH]c3ncnc(N4CCOCC4)c23)c1` displayed a % of control of 80%.
